From ChEMBL document CHEMBL6103569, “Discovery of novel fluorine-containing parthenolide analogues as potential antitumor agents” (Eur J Med Chem, 2025)
Active and inactive are the calls of the source. The rule behind the calls is not given here.

Key:
Huh-7 = assay: Antiproliferative activity against human Huh-7 cells assessed as inhibition of cell growth incubated for 72 hrs by MTT assay; format: functional, cell-based
PANC-1 = assay: Antiproliferative activity against human PANC-1 cells assessed as inhibition of cell growth incubated for 72 hrs by MTT assay; format: functional, cell-based
[1] = Antiproliferative activity against human NCI-H820 cells assessed as inhibition of cell growth incubated for 72 hrs by MTT assay; format: functional, cell-based
NCI-H820 [2] = assay: Antitumor activity against human NCI-H820 cells xenografted in BALB/c nude mouse model assessed as reduction in tumor volume at 30 mg/kg, po administered every 2 days; format: functional, organism-based; settings: time 2.0 day
NCI-H820 [3] = assay: Antitumor activity against human NCI-H820 cells xenografted in BALB/c nude mouse model assessed as reduction in tumor weight at 30 mg/kg, po administered every 2 days; format: functional, organism-based; settings: time 2.0 day

| SMILES | IC50 (Huh-7; Homo sapiens, Huh-7, 72 h) [µM] | IC50 (PANC-1; Homo sapiens, PANC-1, 72 h) [µM] | IC50 (Huh-7; huh-7) [µM] | IC50 (PANC-1; panc-1) [µM] | IC50 ([1]; nci-h820) [µM] | IC50 ([1]; Homo sapiens, NCI-H820, 72 h) [µM] | Activity (NCI-H820 [2]) | Activity (NCI-H820 [3]) |
| --- | --- | --- | --- | --- | --- | --- | --- | --- |
| CN(C)CC1C(=O)O[C@H]2[C@H]1CC/C(CC(F)(F)F)=C\CC[C@@]1(C)O[C@@H]21 (some centres not stated) [listing 1 of 2 here] | – | – | 3.08 | 4.38 | 4.38 | – | – | – |
| CN1CCN(CC2C(=O)O[C@H]3[C@H]2CC/C(CC(F)(F)F)=C\CC[C@@]2(C)O[C@@H]32)CC1 (some centres not stated) [listing 1 of 2 here] | 14.9 | 15.8 | – | – | – | 30.7 | – | – |
| CN1CCN(CC2C(=O)O[C@H]3[C@H]2CC/C(CC(F)(F)F)=C\CC[C@@]2(C)O[C@@H]32)CC1 (some centres not stated) [listing 2 of 2 here] | – | – | 14.2 | 12.7 | 22.5 | – | – | – |
| C[C@@]12CC/C=C(/CC(F)(F)F)CC[C@H]3C(CN4CCC(O)CC4)C(=O)O[C@@H]3[C@@H]1O2 (some centres not stated) | 4.38 | 5.79 | – | – | – | 6.32 | – | – |
| CN(C)CC1C(=O)O[C@H]2[C@H]1CC/C(CC(F)(F)F)=C\CC[C@@]1(C)O[C@@H]21 (some centres not stated) [listing 2 of 2 here] | – | – | – | – | – | – | Active | Active |
| C[C@@]12CC/C=C(/CC(F)(F)F)CC[C@H]3C(CN4CCC[C@H]4CO)C(=O)O[C@@H]3[C@@H]1O2 (some centres not stated) | 3.67 | 4.57 | – | – | – | 4.53 | – | – |

The next lines start with results.

| IC50 (Huh-7; Homo sapiens, Huh-7, 72 h) [µM] | IC50 (PANC-1; Homo sapiens, PANC-1, 72 h) [µM] | SMILES | IC50 (Huh-7; huh-7) [µM] | IC50 (PANC-1; panc-1) [µM] | IC50 ([1]; nci-h820) [µM] | IC50 ([1]; Homo sapiens, NCI-H820, 72 h) [µM] | Activity (NCI-H820 [2]) | Activity (NCI-H820 [3]) |
| --- | --- | --- | --- | --- | --- | --- | --- | --- |
| 7.52 | 14.2 | C=C1C(=O)O[C@H]2[C@H]1CC/C(C=C(F)F)=C\CC[C@@]1(C)O[C@@H]21 | – | – | – | 9.9 | – | – |
| 3.6 | 5.13 | C=C1C(=O)O[C@H]2[C@H]1CC/C(C)=C/CC[C@@]1(C)O[C@@H]21 [PARTHENOLIDE] | – | – | – | 6.35 | – | – |
| 10.1 | 15.6 | C=C1C(=O)O[C@H]2[C@H]1CC/C(CO)=C\CC[C@@]1(C)O[C@@H]21 | – | – | – | 13.3 | – | – |
| 4.32 | 4.59 | CCCNCC1C(=O)O[C@H]2[C@H]1CC/C(CC(F)(F)F)=C\CC[C@@]1(C)O[C@@H]21 (some centres not stated) | – | – | – | 4.39 | – | – |
| 0.99 | 1.09 | C=C1C(=O)O[C@H]2[C@H]1CC/C(CSC(F)(F)F)=C\CC[C@@]1(C)O[C@@H]21 | – | – | – | 1.37 | – | – |
